Reference: article PMC7912516, “New Antimicrobials Based on the Adarotene Scaffold with Activity against Multi-Drug Resistant Staphylococcus aureus and Vancomycin-Resistant Enterococcus” (Antibiotics, 2021)
Where “and” joins values, the source holds several entries; their conditions need not be identical. Equal entries are not always repeated. Where two headings read alike, the source gives them in different places.

How the values were obtained:
[1] = tested on: methicillin-resistant S. aureus (MRSA) strain MW2; design: method as in PMID 29590091; details: ref [12]; cited from earlier work
[2] = tested on: S. aureus strain 1 (MDR clinical isolate, MRSA, mecA positive); assay: MIC/MBC by broth micro-dilution (CLSI); format: cell-based, Staphylococcus aureus; details: S. aureus Strain 1; for MBC: in square brackets
Description: (§1) The compounds were initially tested with a methicillin-resistant S. aureus and an E. faecalis clinical isolates (details in the experimental section), two MDR strains according to definition by Magiorakos et al.. The activity of studied compounds was assessed by broth micro-dilution method. Minimal Inhibitory Concentration (MIC), and Minimal Bactericidal Concentration (MBC) were determined and possible bacteriostatic or bactericidal activity was also investigated.
(§2) MICs and MBCs were determined according to CLSI (Clinical and Laboratory Standards Institute) guidelines, in triplicate. Results are shown as modal values of the three replicates. According to MIC and MBC data, the killing rate was calculated as the ratio between MBC and MIC on which basis it is possible to define the compounds tested as bactericides (killing rate = 1–4), or bacteriostatic (killing rate > 4).
(§3) Preparation of the solution containing molecules: for each molecule to be tested, solutions were made as DMSO stock, with a concentration of 2.560 mg/mL. Scalar dilutions were than prepared directly on plates by using Mueller Hinton Broth (MHB) as a growth medium (range 0.5–256 µg/mL).
(§4) Bacterial suspension preparation: cryostrains preserved at −80 °C were recovered by incubation in growth medium (Brain Heart Infusion Broth, BHI) for 24–48 h at 35 ± 2 °C followed by passages in agar growth medium (Columbia Blood Agar). Colonies with less than 30 h were suspended in MHB with the purpose to prepare a bacterial suspension with a turbidity of 0.5 MF, containing approximately 1.5 × 10^8 cfu/mL. This suspension was than diluted in MHB until reaching a final concentration of 5 × 10^4 CFU/well. Simultaneously, check in broth-microdilution only with solvent (in order to exclude that the effect of growth inhibition might be due to the drug solution solvent), positive growth control in absence of DMSO and drug, and negative purity control only with injection broth were performed.
S. aureus strain 1 (collection, MDR): mecA positive; MRSA, β-lactamase positive, resistant to ciprofloxacin, gentamicin and erythromycin.

[3] = tested on: E. faecalis strain 1 (MDR clinical isolate); assay: MIC/MBC by broth micro-dilution (CLSI); format: cell-based, Enterococcus faecalis; details: for MBC: in square brackets
Description: as §1, §2, §3, §4
E. faecalis strain 1 (collection, MDR) vanA/B negative; aminoglycosides high-level resistant to aminoglycosides (gentamicin and streptomycin) and ampicillin.

[4] = tested on: tumor cell line H-460 NCI; assay: Cytotoxic activity, inhibition of cell growth; format: cell-based; details: Homo sapiens, NCI-H460; H-460 cell line, unpublished results; ± SD; read-out: IC50 (concentration required for 50% inhibition of cell growth)
Text: Table 1 Antimicrobial activity of adarotene derivatives 1–20 against MDR clinical strains of S. aureus and E. faecalis and cytotoxic activity. | column: IC50 ^a (µM)

[5] = Staphylococcus aureus, MRSA, modal value of three replicates, read-out: MIC
[6] = Staphylococcus aureus, MRSA, modal value, read-out: MIC
[7] = Enterococcus faecalis, modal value of three replicates, read-out: MIC
[8] = Enterococcus faecalis, modal value, read-out: MIC
[9] = modal value of three replicates
[10] = Staphylococcus aureus, MRSA, modal value
[11] = Enterococcus faecalis, modal value

O=C(O)c1ccc2cc(-c3ccc(O)c(C45CC6CC(CC(C6)C4)C5)c3)ccc2c1 [CD437]
activity against MRSA strain MW2 [1]: exhibit activity

O=C(O)c1ccc(-c2ccc3cc(O)c(C45CC6CC(CC(C6)C4)C5)cc3c2)cc1 [CD1530]
activity against MRSA strain MW2 [1]: exhibit activity

CCCCC/C=C\C/C=C\CCCCCCCC(=O)Oc1ccc(-c2ccc(/C=C/C(=O)O)cc2)cc1C12CC3CC(CC(C3)C1)C2 [Compound 3]
MIC [2, 5]: 32 µg/mL | MIC [2, 6]: 50 µM | MIC [3, 7]: 128 µg/mL | MIC [3, 8]: 201 µM | IC50 [4]: 7.8 ± 0.7 µM

N#C/C(=C\c1ccc(-c2ccc(O)c(C34CC5CC(CC(C5)C3)C4)c2)cc1)C(=O)O [Compound 9]
MIC [2, 9]: 2 µg/mL | MIC [2, 5]: 2 to 4 µg/mL | MIC [2, 6]: 5 µM | MBC [2, 10]: 4 µg/mL and 10 µM | MBC [3, 11]: 4 µg/mL and 10 µM | MIC [3, 7]: 1 to 4 µg/mL | MIC [3, 8]: 2 µM | MIC [3, 9]: 1 µg/mL | IC50 [4]: > 10 µM

O=C(O)/C=C/c1ccc(-c2cc(CNC(=O)Nc3ccccc3)c(O)c(C34CC5CC(CC(C5)C3)C4)c2)cc1 [Compound 14]
MIC [2, 5]: 8 µg/mL | MIC [2, 6]: 15 µM | MBC [2, 10]: 8 µg/mL and 15 µM | MBC [3, 11]: 16 µg/mL and 31 µM | MIC [3, 7]: 4 µg/mL | MIC [3, 8]: 8 µM | IC50 [4]: > 10 µM
